The test system of the assay is pathogens of rice blast. Type of assay: cell-based. The following applies: test solution 2000 ppm, 1,000 μl on oatmeal culture medium, 4-mm rice blast disc, 25° C., 6 days; calculated from elongation length of hyphae with vs without treatment.

Consider `COc1nc(-n2cccn2)nc(F)c1C(F)(F)F` [Example 1, 6-fluoro-4-methoxy-2-(1-pyrazolyl)-5-(trifluoromethyl)pyrimidine], for which the Preventive value was 100.

These data come from patent US12358894B2 (priority 2019, dated 2025).
